Assay [1] deals with human sperm. Put plainly: Sperm motility assay by CASA (Example 1). The note with it: for EC50: read-out: EC50, sperm motility. Type of assay: cell-based. The procedure:
All donor specimens were obtained after informed consent and in compliance with the guidelines of the Wayne Hughes Institute Institutional Review Board. Motile sperm (≧10×10^6/ml), were suspended in 0.5 ml of Biggers, Whitten, and Whittingam's medium (BWW) containing 25 mM HEPES (Irvine Scientific, Santa Ana, Calif.), and 0.3% bovine serum albumin (BSA; Fraction V, Sigma Chemical Co, St. Louis, Mo.) in the presence and absence of serial two-fold dilutions of test substance (300 μM to 4.6 μm) in 1% DMSO. The stock solutions of synthetic WHI compounds were prepared in DMSO (10 mg/ml) and diluted in DMSO to yield the desired concentrations. Corresponding volume of DMSO (1%) was added to control tubes. N-9 was diluted in BWW-0.3% BSA (pH 7.4) to yield the desired concentrations (4.6 to 300 μM). After 3 hours of incubation at 37° C., the percentage of motile sperm was evaluated by computer-assisted sperm analysis (CASA) as described [L. J. Burkman, Fertil. Steril. […] The percent motilities were compared with sham-treated control suspensions of motile sperm. […] Non-linear regression analyses were used to determine the EC50 values from the concentration effect curves using GraphPad PRISM software (San Diego, Calif.).
For evaluating sperm motion kinematics using CASA, 4 μl each of sperm suspension was loaded into two 20-μm Microcell chambers (Conception Technologies) that was placed onto a counting chamber at 37° C. At least 5-8 fields per chamber were scanned for analysis using a Hamilton Thorne Integrated Visual Optical System (IVOS), version 10 instrument (Hamilton Thorne Research Inc., Danvers, Mass.). Each field was recorded for 30 seconds. […] The performance of the analyzer was periodically checked using the play-back function. The attributes of sperm kinematic parameters evaluated included numbers of motile (MOT) and progressively (PRG) motile sperm; curvilinear velocity (VCL; a measure of the total distance traveled by a given sperm during the acquisition divided by the time elapsed); average path velocity (VAP; the spatially averaged path that eliminates the wobble of the sperm head), straight line velocity (VSL; the straight-line distance from beginning to end of track divided by time taken), beat cross frequency (BCF, frequency of sperm head crossing sperm average path), the amplitude of lateral head displacement (ALH; the mean width of sperm head oscillation) and the derivatives, straightness ([…]); linearity (LIN=100×VSL/VCL; departure of sperm track from a straight line). Data from each individual cell track were recorded and analyzed. At least 200 motile sperm were analyzed for each aliquot sampled.

For assay [2], the system named is human sperm. Put plainly: cells. The class given is cell-based. On the procedure: All donor specimens were obtained after informed consent and in compliance with the guidelines of the Hughes Institute Institutional Review Board. To evaluate the spermicidal effects of ZDV derivatives, highly motile fraction of pooled donor sperm (n 8) were prepared from liquefied normospermic semen by discontinuous (90-45%) gradient centrifugation using Enhance-S-Plus (Conception technologies, San Diego, Calif.) cell isolation medium as previously described. [D'Cruz O J, et al., Biol Reprod 1999; 60:1419-1428; D'Cruz O J, et al., Biol Reprod 1995; 53:118-1130; and D'Cruz O J, et al., Biol Reprod 1998; 58:1515-1526]. The resulting pellet was washed twice and resuspended in 1-ml of Biggers, Whitten, and Whittingam's medium (BWW) (Irvine Scientific, Santa Ana, Calif.) containing 3% BSA (fraction V; Sigma Chemical Co., St. Louis, Mo.). One-ml aliquots of the sperm suspension were centrifuged (500× g, 5 min) and incubated at 45° for 90 min at 37° C. in 5% CO2 atmosphere. The supernatant containing primarily motile sperm was aspirated carefully, washed once in BWW medium containing 25 mM HEPES and 0.3% BSA and resuspended in the same medium. Pooled motile sperm (=10×10^6/ml) prepared from 3-5 donors were suspended in 1-ml of BWW-0.3% BSA in the presence and absence of serial 2-fold dilutions of test substance (1.9 μm to 500 μM) in 0.5% dimethyl sulfoxide (DMSO). The stock solutions of synthetic compounds were prepared in DMSO (100 mM) and diluted in medium to yield the desired concentrations. A corresponding volume of DMSO (0.5%) was added to control tubes. After 3 hour incubation at 37° C., the percentage of motile sperm was evaluated by computer-assisted sperm motion analysis (CASA) [D'Cruz O J, et al., Biol Reprod 1998; 58:1515-1526; D'Cruz O J, et al., Mol Hum Reprod 1998; 4:683-693; D'Cruz O J, et al., Biol Reprod 1999; 60:435-444]. The percentage motilities were compared with those of sham-treated control suspensions of motile sperm. The spermicidal activity of test compounds was expressed as the mean EC50 values (the final concentration of the compound in the medium that decreases the proportion of motile sperm by 50%) calculated from three independent experiments.
For CASA, 4 μl of each sperm suspension were loaded into a 20-μm Microcell chamber at 37° C. Eight to ten fields per chamber were scanned for analysis using a Hamilton Thome Integrated Visual Optical System (IVOS), version 10 instrument (Hamilton Thome Research Inc., Danvers, Mass.) [see, D'Cruz O J, et al. Biol Reprod 1998; 58:1515-1526; and D'Cruz O J, et al., Mol Hum Reprod 1998; 4:683-693; and D'Cruz O J, et al., Biol Reprod 1999; 60:435-444]. Each field was recorded for 30 sec. The computer calibrations were set at 30 frames at a frame rate of 30/s. Other settings were as follows: minimum contrast 8; minimum size 6; low-size gate, 1.0; high-size gate, 2.9; low-intensity gate, 0.6; high-intensity gate, 1.4; phase-contrast illumination; low path velocity at 10 μm/s, and threshold straightness at 80%; magnification factor, 1.95.
The sperm kinematic parameters that were determined included numbers of motile (MOT) and progressively (PRG) motile sperm; curvilinear velocity (VCL; a measure of the total distance traveled by a given sperm during the acquisition divided by the time elapsed); average path velocity (VAP; the spatially averaged path that eliminates the wobble of the sperm head), straight line velocity (VSL; the straight-line distance from beginning to end of track divided by time taken), beat cross frequency (BCF, frequency of sperm head crossing sperm average path), the amplitude of lateral head displacement (ALH; the mean width of sperm head oscillation), straightness (STR=VSL/VAP×100); linearity (LIN=VSL/VCL×100; departure of sperm track from a straight line). Data from each individual cell track were recorded and analyzed. At least 200 motile sperm were analyzed for each aliquot sampled.

Setting [3] is: 3 hour incubation, mean ± SD of three experiments, read-out: EC50 (sperm motility, CASA) (converted).
The mark [4] stands for this setting: Table 4, mean of three experiments, read-out: Sperm EC50.
Setting [5] is: 3 hours incubation at 37° C., CASA.

We go through five compounds from patent US6482805B2 (Parker Hughes Institute, priority 1998, dated 2002).

With “5-Bromo-6-methoxy-5,6-dihydro-3′-azidothymidine 5′-[Phenyl methoxyalaninyl phosphate] [WHI-04]”, in the assay on human sperm [1] (compared with related derivatives), the “spermicidal activity, in words” value is given as “improved spermicidal activity over WHI-01”. The half-maximal effective concentration (EC50) (usually the concentration that produces a half-maximal response) was 35 ± 5 µM in the assay with human sperm [2] (setting [3]) and 35 µM in the assay on human sperm [2] (setting [4]).

Take “5-Bromo-6-methoxy-5,6-dihydro-3′-azidothymidine-5′-[(p-Fluorophenyl methoxyalaninyl phosphate] [WHI-06]”: the concentration giving a half-maximal response (EC50) with human sperm [1] (setting [5]), in the assay with human sperm [2] (setting [3]) and with human sperm [2] (setting [4]) was 15 µM each time.

Turning to “5-bromo-6-methoxy-5,6-dihydro-3 ′-azidothymidine-5 ′-(p-methoxyphenyl) methoxyalaninyl phosphate [WHI-05]”, the concentration for a half-maximal effect (EC50) with human sperm [1] (setting [5]) was 29 µM; with human sperm [2] (setting [3]) it was 24 µM; in the assay on human sperm [2] (setting [4]), 24 µM.

With `CCCCCCCCCc1ccc(OCCOCCOCCOCCOCCOCCOCCOCCOCCO)cc1` [Compound N-9, nonoxynol-9, reference compound], the 50% effective concentration (EC50) with human sperm [1] (Homo sapiens, Sperm, 3 hours incubation at 37° C., CASA) came to 81 µM; in the assay on human sperm [2] (Homo sapiens, Sperm, Table 4, mean of three experiments, read-out: Sperm EC50), 81 µM.

For `COC(=O)C(C)NP(=O)(OCC1OC(N2C(=O)NC(=O)C(C)(Br)C2OC)CC1N=[N+]=[N-])Oc1ccc(Br)cc1` (centres unmarked) [WHI-07, 5-Bromo-6-methoxy-5,6-dihydro-3′-azidothymidine-5′-(p-Bromophenyl Methoxyalaninyl Phosphate)], the EC50 in the assay on human sperm [1] (Homo sapiens, Sperm, 3 h) turned out to be 6 µM; with human sperm [2] (Homo sapiens, Sperm, 3 h, read-out: EC50 (sperm motility, CASA)) it was 5 µM; in the assay with human sperm [2] (Homo sapiens, Sperm, read-out: Sperm EC50), 5 µM.
